# In patent US10647747B2, “Cyclosporin derivatives and uses thereof” (S&T Global Inc., priority 2010, dated 2020):
# Read-outs that look alike come from different tables or passages of the source. *1 amine or outer side, *2 acyl side, *3 side chain or, on linkers, in order; H or OH if unused. Where a SMILES comes first, the peptide text is derived from it. [ ]: non-standard residue; d: D form. ξ: configuration not given here. NMe(dihydroBmt) = CCCC[C@@H](C)[C@@H](O)[C@H](NC)C(=O)O; MeBmt = C/C=C/C[C@@H](C)[C@@H](O)[C@H](NC)C(=O)O; X11 = CN([C@@H](CC(C)(C)OCCO)C(=O)[*:2])[*:1]; X1 = CN([C@H](SCCCN1CCOCC1)C(=O)[*:2])[*:1]; NMeIle(3ξ) = CCC(C)[C@H](NC)C(=O)O; NMeL = CN[C@@H](CC(C)C)C(=O)O; NMeV = CN[C@H](C(=O)O)C(C)C; Abu = CC[C@H](N)C(=O)O; Sar = CNCC(=O)O
# Key:
# [1] = Stability testing: epimerization of cyclosporin derivatives in methanol, monitored by HPLC; type: physicochemical; settings: for Epimerization %: Table 10, MeOH at 50° C.; for Epimerization % after 168 hours: Table 11, MeOH at 50° C.-58° C.
# [2] = tested on: HCV replicon in cell line ET (luc-ubi-neo/ET), Huh7 human hepatoma; experiment: HCV subgenomic replicon assay, luciferase end point; type: cell-based; settings: read-out: Antiviral activity EC50
# [3] = Table 12, HCV replicon luciferase
compound,measurement,setting,value
C/C=C/C[C@@H](C)[C@@H](O)[C@H]1C(=O)N[C@@H](CC)C(=O)N(C)[C@H](SCCCN(CC)CC)C(=O)N(C)[C@@H](CC(C)(C)O)C(=O)N[C@@H](C(C)C)C(=O)N(C)[C@@H](CC(C)C)C(=O)N[C@@H](C)C(=O)N[C@H](C)C(=O)N(C)[C@@H](CC(C)C)C(=O)N(C)[C@@H](CC(C)C)C(=O)N(C)[C@@H](C(C)C)C(=O)N1C,Epimerization %,[1]; 29 hours,0%
same,Epimerization %,[1]; 77 hours,Less than 1%
same,Epimerization %,[1]; 125 hours,~12%
C/C=C/C[C@@H](C)[C@@H](O)[C@H]1C(=O)N[C@@H](CC)C(=O)N(C)[C@H](SCCCN(CC)CC)C(=O)N(C)[C@@H](CC(C)(C)OC)C(=O)N[C@@H](C(C)C)C(=O)N(C)[C@@H](CC(C)C)C(=O)N[C@@H](C)C(=O)N[C@H](C)C(=O)N(C)[C@@H](CC(C)C)C(=O)N(C)[C@@H](CC(C)C)C(=O)N(C)[C@@H](C(C)C)C(=O)N1C,Epimerization %,[1]; 29 hours,0%
same,Epimerization %,[1]; 77 hours,0%
same,Epimerization %,[1]; 125 hours,0%
C/C=C/C[C@@H](C)[C@@H](O)[C@H]1C(=O)N[C@@H](CC)C(=O)N(C)[C@H](CSCCN(CC)CC)C(=O)N(C)[C@@H](CC(C)(C)O)C(=O)N[C@@H](C(C)C)C(=O)N(C)[C@@H](CC(C)C)C(=O)N[C@@H](C)C(=O)N[C@H](C)C(=O)N(C)[C@@H](CC(C)C)C(=O)N(C)[C@@H](CC(C)C)C(=O)N(C)[C@@H](C(C)C)C(=O)N1C,Epimerization % after 168 hours,[1],0%
C/C=C/C[C@@H](C)[C@@H](O)[C@H]1C(=O)N[C@@H](CC)C(=O)N(C)[C@H](COCCN(CC)CC)C(=O)N(C)[C@@H](CC(C)(C)O)C(=O)N[C@@H](C(C)C)C(=O)N(C)[C@@H](CC(C)C)C(=O)N[C@@H](C)C(=O)N[C@H](C)C(=O)N(C)[C@@H](CC(C)C)C(=O)N(C)[C@@H](CC(C)C)C(=O)N(C)[C@@H](C(C)C)C(=O)N1C,Epimerization % after 168 hours,[1],0%
C/C=C/C[C@@H](C)[C@@H](O)[C@H]1C(=O)N[C@@H](CC)C(=O)N(C)[C@H](COCCN(CC)CC)C(=O)N(C)[C@@H](CC(C)C)C(=O)N[C@@H](C(C)C)C(=O)N(C)[C@@H](CC(C)C)C(=O)N[C@@H](C)C(=O)N[C@H](C)C(=O)N(C)[C@@H](CC(C)C)C(=O)N(C)[C@@H](CC(C)C)C(=O)N(C)[C@@H](C(C)C)C(=O)N1C,Epimerization % after 168 hours,[1],0%
C/C=C/C[C@@H](C)[C@@H](O)[C@H]1C(=O)N[C@@H](CC)C(=O)N(C)[C@H](CSCCN(C)C)C(=O)N(C)[C@@H](CC(C)(C)O)C(=O)N[C@@H](C(C)C)C(=O)N(C)[C@@H](CC(C)C)C(=O)N[C@@H](C)C(=O)N[C@H](C)C(=O)N(C)[C@@H](CC(C)C)C(=O)N(C)[C@@H](CC(C)C)C(=O)N(C)[C@@H](C(C)C)C(=O)N1C,Epimerization % after 168 hours,[1],0%
C/C=C/C[C@@H](C)[C@@H](O)[C@H]1C(=O)N[C@@H](CC)C(=O)N(C)[C@H](COCCN(C)C)C(=O)N(C)[C@@H](CC(C)C)C(=O)N[C@@H](C(C)C)C(=O)N(C)[C@@H](CC(C)C)C(=O)N[C@@H](C)C(=O)N[C@H](C)C(=O)N(C)[C@@H](CC(C)C)C(=O)N(C)[C@@H](CC(C)C)C(=O)N(C)[C@@H](C(C)C)C(=O)N1C,Epimerization % after 168 hours,[1],0%
C/C=C/C[C@@H](C)[C@@H](O)[C@H]1C(=O)N[C@@H](CC)C(=O)N(C)[C@H](CSCCCN2CCOCC2)C(=O)N(C)[C@@H](CC(C)(C)O)C(=O)N[C@@H](C(C)C)C(=O)N(C)[C@@H](CC(C)C)C(=O)N[C@@H](C)C(=O)N[C@H](C)C(=O)N(C)[C@@H](CC(C)C)C(=O)N(C)[C@@H](CC(C)C)C(=O)N(C)[C@@H](C(C)C)C(=O)N1C,Epimerization % after 168 hours,[1],0%
C/C=C/C[C@@H](C)[C@@H](O)[C@H]1C(=O)N[C@@H](CC)C(=O)N(C)[C@H](CSCCCN(C)C)C(=O)N(C)[C@@H](CC(C)(C)O)C(=O)N[C@@H](C(C)C)C(=O)N(C)[C@@H](CC(C)C)C(=O)N[C@@H](C)C(=O)N[C@H](C)C(=O)N(C)[C@@H](CC(C)C)C(=O)N(C)[C@@H](CC(C)C)C(=O)N(C)[C@@H](C(C)C)C(=O)N1C,Epimerization % after 168 hours,[1],0%
C/C=C/C[C@@H](C)[C@@H](O)[C@H]1C(=O)N[C@@H](CC)C(=O)N(C)[C@H](CSCCCN2CCCCC2)C(=O)N(C)[C@@H](CC(C)(C)O)C(=O)N[C@@H](C(C)C)C(=O)N(C)[C@@H](CC(C)C)C(=O)N[C@@H](C)C(=O)N[C@H](C)C(=O)N(C)[C@@H](CC(C)C)C(=O)N(C)[C@@H](CC(C)C)C(=O)N(C)[C@@H](C(C)C)C(=O)N1C,Epimerization % after 168 hours,[1],0%
C/C=C/C[C@@H](C)[C@@H](O)[C@H]1C(=O)N[C@@H](CC)C(=O)N(C)[C@H](CSCCCN(CC)CC)C(=O)N(C)[C@@H](CC(C)(C)O)C(=O)N[C@@H](C(C)C)C(=O)N(C)[C@@H](CC(C)C)C(=O)N[C@@H](C)C(=O)N[C@H](C)C(=O)N(C)[C@@H](CC(C)C)C(=O)N(C)[C@@H](CC(C)C)C(=O)N(C)[C@@H](C(C)C)C(=O)N1C,Epimerization % after 168 hours,[1],0%
C/C=C/C[C@@H](C)[C@@H](O)[C@H]1C(=O)N[C@@H](CC)C(=O)N(C)[C@H](SCCCN2CCOCC2)C(=O)N(C)[C@@H](C(C)CC)C(=O)N[C@@H](C(C)C)C(=O)N(C)[C@@H](CC(C)C)C(=O)N[C@@H](C)C(=O)N[C@H](C)C(=O)N(C)[C@@H](CC(C)C)C(=O)N(C)[C@@H](CC(C)C)C(=O)N(C)[C@@H](C(C)C)C(=O)N1C (stereo partly drawn) (cyclo(A[dA][NMeL][NMeL][NMeV][MeBmt][Abu][X1][NMeIle(3ξ)]V[NMeL])),Epimerization %,[1]; 29 hours,0%
same,Epimerization %,[1]; 77 hours,0%
same,Epimerization %,[1]; 125 hours,0%
C/C=C/C[C@@H](C)[C@@H](O)[C@H]1C(=O)N[C@@H](CC)C(=O)N(C)[C@H](SCCCN2CCOCC2)C(=O)N(C)[C@@H](C(C)C)C(=O)N[C@@H](C(C)C)C(=O)N(C)[C@@H](CC(C)C)C(=O)N[C@@H](C)C(=O)N[C@H](C)C(=O)N(C)[C@@H](CC(C)C)C(=O)N(C)[C@@H](CC(C)C)C(=O)N(C)[C@@H](C(C)C)C(=O)N1C (cyclo(A[dA][NMeL][NMeL][NMeV][MeBmt][Abu][X1][NMeV]V[NMeL])),Epimerization %,[1]; 29 hours,0%
same,Epimerization %,[1]; 77 hours,0%
same,Epimerization %,[1]; 125 hours,0%
CCCC[C@@H](C)[C@@H](O)[C@H]1C(=O)N[C@@H](CC)C(=O)N(C)CC(=O)N(C)[C@@H](CC(C)(C)OCCO)C(=O)N[C@@H](C(C)C)C(=O)N(C)[C@@H](CC(C)C)C(=O)N[C@@H](C)C(=O)N[C@H](C)C(=O)N(C)[C@@H](CC(C)C)C(=O)N(C)[C@@H](CC(C)C)C(=O)N(C)[C@@H](C(C)C)C(=O)N1C [[γ-(2-Hydroxyethoxy)-N-MeLeu]-4-dihydrocyclosporin] (cyclo(A[dA][NMeL][NMeL][NMeV][NMe(dihydroBmt)][Abu][Sar][X11]V[NMeL])),EC50,"[2]; Table 13, HCV replicon luciferase",430 nM
(R)-2-(N-iso-Butyl-N-iso-propylamino)ethylthio-Sar]-3-cyclosporin,EC50,[2]; [3],4650 nM
"(S)-2-(N,N-Diethylamino)ethylthio-Sar]-3-[N-MeIle]-4-cyclosporin",EC50,[2]; [3],40 nM
